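Cultured in 96-well plates, cells were exposed to test compound for 48 hours across five concentrations. TGI: total growth inhibition.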
What was measured:
Assay in all cases: inhibition of tumour cell growth, NCI panel, 48 h
ACHN renal = tested on: ACHN renal
MOLT-4 leukemia = tested on: MOLT-4 leukemia
SK-MEL-2 melanoma = tested on: SK-MEL-2 melanoma
SR leukemia = tested on: SR leukemia
SK-OV-3 ovarian = tested on: SK-OV-3 ovarian
KM20L2 colon = tested on: KM20L2 colon
OVCAR-5 ovarian = tested on: OVCAR-5 ovarian
CAKI-1 renal = tested on: CAKI-1 renal
RPMI-8226 leukemia = tested on: RPMI-8226 leukemia
UO-31 renal = tested on: UO-31 renal
A498 renal = tested on: A498 renal
TK-10 renal = tested on: TK-10 renal
HOP-92 NSCLC = tested on: HOP-92 NSCLC
HOP-62 NSCLC = tested on: HOP-62 NSCLC
HL-60(TB) leukemia = tested on: HL-60(TB) leukemia
IGROV1 ovarian = tested on: IGROV1 ovarian
SK-MEL-5 melanoma = tested on: SK-MEL-5 melanoma
NCI-H460 lung = tested on: NCI-H460 lung
SF-539 CNS = tested on: SF-539 CNS
KM12 colon = tested on: KM12 colon
HCC-2998 colon = tested on: HCC-2998 colon
XF 498 CNS = tested on: XF 498 CNS
SF-295 CNS = tested on: SF-295 CNS
UACC-62 melanoma = tested on: UACC-62 melanoma
SK-MEL-28 melanoma = tested on: SK-MEL-28 melanoma
SNB-78 CNS = tested on: SNB-78 CNS
MALME-3M melanoma = tested on: MALME-3M melanoma
SNB-19 CNS = tested on: SNB-19 CNS
M14 melanoma = tested on: M14 melanoma
OVCAR-3 ovarian = tested on: OVCAR-3 ovarian
NCI-H522 lung = tested on: NCI-H522 lung
U251 CNS = tested on: U251 CNS
HCT-15 colon = tested on: HCT-15 colon
SW-620 colon = tested on: SW-620 colon
HT29 colon = tested on: HT29 colon
DMS 114 small cell lung = tested on: DMS 114 small cell lung
DMS 273 small cell lung = tested on: DMS 273 small cell lung
OVCAR-8 ovarian = tested on: OVCAR-8 ovarian
LOX IMVI melanoma = tested on: LOX IMVI melanoma
NCI-H23 lung = tested on: NCI-H23 lung
A549 NSCLC = tested on: A549 NSCLC
OVCAR-4 ovarian = tested on: OVCAR-4 ovarian
NCI-H226 lung = tested on: NCI-H226 lung
EKVX NSCLC = tested on: EKVX NSCLC
M19-MEL melanoma = tested on: M19-MEL melanoma
786-0 renal = tested on: 786-0 renal
RXF 393 renal = tested on: RXF 393 renal
SF-268 CNS = tested on: SF-268 CNS
UACC-257 melanoma = tested on: UACC-257 melanoma
SN12C renal = tested on: SN12C renal
COLO 205 colon = tested on: COLO 205 colon
SNB-75 CNS = tested on: SNB-75 CNS
LXFL 529 NSCLC = tested on: LXFL 529 NSCLC
HCT-116 colon = tested on: HCT-116 colon
CCRF-CEM leukemia = tested on: CCRF-CEM leukemia
DLD-1 colon = tested on: DLD-1 colon
K-562 leukemia = tested on: K-562 leukemia

Question: Which TGI (ACHN renal) does the source give for `CCCCCC(=O)OC[n+]1ccc2c(C)c3[nH]c4ccccc4c3c(C)c2c1` here?
Answer: 11.1 µM

Question: And the TGI (MOLT-4 leukemia)?
Answer: 8.26 µM

Question: And the TGI (SK-MEL-2 melanoma)?
Answer: 29.8 µM

Question: And the TGI (SR leukemia)?
Answer: 12 µM

Question: What about the TGI (SK-OV-3 ovarian) of the same compound?
Answer: 5.13 µM

Question: What about the TGI (KM20L2 colon) of the same compound?
Answer: 2.75 µM

Question: What about the TGI (OVCAR-5 ovarian) of the same compound?
Answer: 2.75 µM

Question: And the TGI (CAKI-1 renal)?
Answer: 7.75 µM

Question: What about the TGI (RPMI-8226 leukemia) of the same compound?
Answer: 1.78 µM

Question: What about the TGI (UO-31 renal) of the same compound?
Answer: 13 µM

Question: What about the TGI (A498 renal) of the same compound?
Answer: 2.67 µM

Question: What about the TGI (TK-10 renal) of the same compound?
Answer: 15.4 µM

Question: What about the TGI (HOP-92 NSCLC) of the same compound?
Answer: > 100 µM

Question: And the TGI (HOP-62 NSCLC)?
Answer: 4.14 µM

Question: What about the TGI (HL-60(TB) leukemia) of the same compound?
Answer: > 100 µM

Question: And the TGI (IGROV1 ovarian)?
Answer: 38.6 µM

Question: What does the source list for `CC1CCCC2(O1)OC1CC(=O)OC1C1=C2C(=O)c2ccccc2C1=O` (centres undefined)?
Answer: TGI (ACHN renal): 15 µM; TGI (MOLT-4 leukemia): 4.09 µM; TGI (SK-MEL-2 melanoma): 6.11 µM; TGI (SK-MEL-5 melanoma): 4.14 µM; TGI (NCI-H460 lung): 67.2 µM; TGI (SF-539 CNS): 19.9 µM; TGI (KM12 colon): 31.7 µM; TGI (SK-OV-3 ovarian): 30 µM; TGI (HCC-2998 colon): 8.7 µM; TGI (KM20L2 colon): 16 µM; TGI (XF 498 CNS): 8.42 µM; TGI (OVCAR-5 ovarian): 35 µM; TGI (CAKI-1 renal): 7.13 µM; TGI (SF-295 CNS): 32 µM; TGI (UACC-62 melanoma): 5.1 µM; TGI (RPMI-8226 leukemia): 4.27 µM; TGI (SK-MEL-28 melanoma): 4.75 µM; TGI (SNB-78 CNS): 4.85 µM; TGI (MALME-3M melanoma): 4.43 µM; TGI (SNB-19 CNS): 30.5 µM; TGI (M14 melanoma): 7.89 µM; TGI (OVCAR-3 ovarian): 10.5 µM; TGI (NCI-H522 lung): 3.65 µM; TGI (UO-31 renal): 5.41 µM; TGI (U251 CNS): 32.5 µM; TGI (HCT-15 colon): 8.04 µM; TGI (SW-620 colon): 6.42 µM; TGI (A498 renal): 33.8 µM; TGI (TK-10 renal): 21 µM; TGI (HT29 colon): 11 µM; TGI (DMS 114 small cell lung): 3.35 µM; TGI (DMS 273 small cell lung): 3.82 µM; TGI (OVCAR-8 ovarian): 7.06 µM; TGI (LOX IMVI melanoma): 9.29 µM; TGI (NCI-H23 lung): 19.7 µM; TGI (A549 NSCLC): 35.5 µM; TGI (OVCAR-4 ovarian): 3.83 µM; TGI (HOP-62 NSCLC): 30.2 µM; TGI (NCI-H226 lung): 4.51 µM; TGI (EKVX NSCLC): 14.2 µM; TGI (M19-MEL melanoma): 7.36 µM; TGI (786-0 renal): 3.85 µM; TGI (RXF 393 renal): 4.14 µM; TGI (SF-268 CNS): 14.9 µM; TGI (UACC-257 melanoma): 3.95 µM; TGI (SN12C renal): 4.77 µM; TGI (HL-60(TB) leukemia): 3.48 µM; TGI (COLO 205 colon): 5.19 µM; TGI (SNB-75 CNS): 23.7 µM; TGI (IGROV1 ovarian): 6.87 µM; TGI (LXFL 529 NSCLC): 2.76 µM

Question: How did the TGI (ACHN renal) turn out when `CC(C)(C)C(=O)Cc1cc2c(cc1C(=O)O)S(=O)(=O)NC(C(C)(C)C)=C2` was run?
Answer: > 100 µM

Question: What about the TGI (MOLT-4 leukemia) of the same compound?
Answer: > 100 µM

Question: And the TGI (HCT-116 colon)?
Answer: > 100 µM

Question: And the TGI (SK-MEL-2 melanoma)?
Answer: > 100 µM

Question: What about the TGI (NCI-H460 lung) of the same compound?
Answer: > 100 µM

Question: And the TGI (KM12 colon)?
Answer: > 100 µM

Question: What about the TGI (SR leukemia) of the same compound?
Answer: > 100 µM

Question: And the TGI (SK-OV-3 ovarian)?
Answer: > 100 µM

Question: And the TGI (OVCAR-5 ovarian)?
Answer: > 100 µM

Question: And the TGI (CAKI-1 renal)?
Answer: > 100 µM

Question: What about the TGI (SF-295 CNS) of the same compound?
Answer: > 100 µM

Question: What about the TGI (UACC-62 melanoma) of the same compound?
Answer: > 100 µM

Question: And the TGI (RPMI-8226 leukemia)?
Answer: > 100 µM

Question: And the TGI (SK-MEL-28 melanoma)?
Answer: > 100 µM

Question: And the TGI (SNB-78 CNS)?
Answer: > 100 µM

Question: And the TGI (MALME-3M melanoma)?
Answer: > 100 µM

Question: And the TGI (SNB-19 CNS)?
Answer: > 100 µM

Question: And the TGI (M14 melanoma)?
Answer: > 100 µM

Question: What about the TGI (OVCAR-3 ovarian) of the same compound?
Answer: > 100 µM

Question: What about the TGI (NCI-H522 lung) of the same compound?
Answer: > 100 µM

Question: And the TGI (CCRF-CEM leukemia)?
Answer: > 100 µM

Question: What about the TGI (UO-31 renal) of the same compound?
Answer: > 100 µM

Question: What about the TGI (U251 CNS) of the same compound?
Answer: > 100 µM

Question: What about the TGI (SW-620 colon) of the same compound?
Answer: > 100 µM

Question: And the TGI (A498 renal)?
Answer: > 100 µM

Question: What about the TGI (TK-10 renal) of the same compound?
Answer: > 100 µM

Question: And the TGI (HT29 colon)?
Answer: > 100 µM

Question: What about the TGI (DMS 114 small cell lung) of the same compound?
Answer: > 100 µM

Question: And the TGI (OVCAR-8 ovarian)?
Answer: > 100 µM

Question: And the TGI (NCI-H23 lung)?
Answer: > 100 µM

Question: And the TGI (DLD-1 colon)?
Answer: > 100 µM

Question: And the TGI (HOP-92 NSCLC)?
Answer: > 100 µM

Question: What about the TGI (A549 NSCLC) of the same compound?
Answer: > 100 µM

Question: And the TGI (OVCAR-4 ovarian)?
Answer: > 100 µM

Question: What about the TGI (HOP-62 NSCLC) of the same compound?
Answer: > 100 µM

Question: What about the TGI (NCI-H226 lung) of the same compound?
Answer: > 100 µM

Question: And the TGI (EKVX NSCLC)?
Answer: > 100 µM

Question: And the TGI (M19-MEL melanoma)?
Answer: > 100 µM

Question: What about the TGI (786-0 renal) of the same compound?
Answer: > 100 µM

Question: And the TGI (SF-268 CNS)?
Answer: > 100 µM

Question: What about the TGI (UACC-257 melanoma) of the same compound?
Answer: > 100 µM

Question: What about the TGI (SN12C renal) of the same compound?
Answer: > 100 µM

Question: What about the TGI (HL-60(TB) leukemia) of the same compound?
Answer: > 100 µM

Question: And the TGI (COLO 205 colon)?
Answer: > 100 µM

Question: What about the TGI (K-562 leukemia) of the same compound?
Answer: > 100 µM

Question: What about the TGI (SNB-75 CNS) of the same compound?
Answer: > 100 µM

Question: And the TGI (LXFL 529 NSCLC)?
Answer: > 100 µM

— PubChem BioAssay (NCI)
